From patent US10683272B2 (THE JOHNS HOPKINS UNIVERSITY, priority 2014, dated 2020)
Values joined by “and” are separate entries in the source; they are usually repeats but may differ in a detail not shown here. Equal entries are not always repeated.

Test: radiation dosimetry (OLINDA/EXM) from baboon PET data
Format: Reference Adult Male based on baboon PET imaging data
Method: For each time-point, the activity concentration (in Bq/cm^3) was measured in each of the 14 delineated organs and multiplied by the organ volume to obtain the total activity per time point per organ. The measured values were then decay-corrected and divided by the baboon organ mass, determined by the CT density and volume from the drawn contours, and the injected radioactivity to obtain the fraction of initial radioactivity per gram (FIA/g) for each time point and each organ. The baboon FIA/g values were then converted to human FIA (per organ) using the following equation (Schwartz et al., 2011; Woodard et al., 1975): […]
That approach assumes that the concentration of activity in a particular tissue relative to the overall concentration in the whole body is preserved across species (i.e., organ concentration/total body concentration is the same for baboon and man). The resulting human FIA values were plotted as a function of time (nine data points) for each organ and fit to a bi-exponential expression: FIA(t)=A1.e^−(λ1^bio^.t)+A2.e^−(Δ2^bio^.t) (2)
where A1, A2, λ1bio, and λ2bio are fit parameters. The sum of A1 and A2 give the back-extrapolated, time-zero fraction of administered radioactivity in each organ, and λ1bio and λ2bio are the biological clearance constants. The equation for the time-integrated activity coefficient [TIAC, previously known as residence time (Bolch et al., 2009) for each source organ was obtained, as its name implies, by integrating equation (2) and introducing a physical decay term, λφ, which depends on the isotope used:
TIACs were calculated for ^90Y, ^177Lu and ^86Y, with their corresponding physical decay constants: ^90Y λφ=0.01083 h^−1 (T1/2=64.0 h); ^177Lu λφ=0.00429 h^−1 (T1/2=161.52 h) and ^86Y λφ=0.04702 h^−1 (T1/2=14.74 h), respectively voiding. Radiation absorbed doses were obtained by converting time-integrated activity to absorbed doses according to the MIRD absorbed fraction methodology (Bolch et al., 2009) through the use of the OLINDA/EXM software (Stabin et al., 2005). The TIAC for the urinary bladder was obtained using the MIRD bladder model implemented in OLINDA/EXM. Input to that model requires the whole-body TIAC, which was obtained from the equation FIA(t)=A. e^(−λ^bio^t) fitted to whole-body retention kinetics. The voiding interval was set to 2 h. The TIACs were then input into OLINDA/EXM (Stabin et al., 2005), and the resulting absorbed dose per unit of radioactivity obtained for the 14 organs. The specific kidney model in OLINDA/EXM was used to obtain the renal cortex dose values. The absorbed dose from organs external to the kidney was added to the renal cortex dose calculated from the internal kidney model. The specific prostate model was used for prostate self-dose, and external dose to the bladder was added as a surrogate for the whole body to prostate dose. The self-dose component of the absorbed dose per unit activity for the salivary glands was obtained using 3D-RD Monte Carlo (EGSnrc) and a human CT with delineated salivary glands. The cross-dose component was taken by assuming the same cross-dose for a like-sized organ (pancreas).
Measured activity concentration (in Bq/cm^3) values per time point per organ were decay-corrected and divided by the baboon organ mass, determined by the CT density and volume from the drawn contours, and the injected radioactivity to obtain the fraction of initial radioactivity per gram (FIA/g) for each time point and each organ. The baboon FIA/g values were then converted to human FIA (per organ) using the related equation (Olszewski et al., 2004; Schwartz et al., 2011). The resulting human FIA values were then plotted as a function of time and fit to a bi-exponential expression and the value for the time-integrated activity coefficient (TIAC, previously known as residence time (Woodard et al., 1975)) for each source organ was calculated. […]

**Q.** With `O=C([O-])CN1CCN(CC(=O)[O-])CCN(CC(=O)[O-])C(Cc2ccc(NC(=S)NCCCCNC(=O)CCCCCCC(=O)NCCCC[C@H](NC(=O)N[C@@H](CCC(=O)O)C(=O)O)C(=O)O)cc2)CN(CC(=O)[O-])CC1.[86Y+3]` (stereo partly drawn) [^86Y-6] as the compound, how does the “Organ absorbed dose, Testes” value (^90Y) read?
**A.** 3.46E−02 mGy/MBq

**Q.** And the “Organ absorbed dose, Thymus” value (^90Y)?
**A.** 3.46E−02 mGy/MBq

**Q.** What about the “Organ absorbed dose, Thyroid” value (^90Y) of the same compound?
**A.** 3.46E−02 mGy/MBq

**Q.** And the “Organ absorbed dose, ULI wall” value (^90Y)?
**A.** 6.29E−02 mGy/MBq

**Q.** And the “Organ absorbed dose, Urinary bladder wall” value (^90Y)?
**A.** 1.25 mGy/MBq

**Q.** And the “Organ absorbed dose, Uterus” value (^90Y)?
**A.** 3.46E−02 mGy/MBq

**Q.** What about the “Time-integrated activity coefficient (residence time), Brain” value (^90Y) of the same compound?
**A.** 1.79E−02 MBq-h/MBq

**Q.** What about the “Time-integrated activity coefficient (residence time), Heart contents” value (^90Y) of the same compound?
**A.** 3.15E−02 MBq-h/MBq

**Q.** And the “Time-integrated activity coefficient (residence time), Kidneys” value (^90Y)?
**A.** 6.43E−01 MBq-h/MBq

**Q.** And the “Time-integrated activity coefficient (residence time), Liver” value (^90Y)?
**A.** 1.77E−01 MBq-h/MBq

**Q.** What about the “Time-integrated activity coefficient (residence time), Lungs” value (^90Y) of the same compound?
**A.** 1.22E−01 MBq-h/MBq

**Q.** And the “Time-integrated activity coefficient (residence time), Muscle” value (^90Y)?
**A.** 6.85E−01 MBq-h/MBq

**Q.** And the “Time-integrated activity coefficient (residence time), Pancreas” value (^90Y)?
**A.** 8.42E−03 MBq-h/MBq

**Q.** What about the “Time-integrated activity coefficient (residence time), Prostate” value (^90Y) of the same compound?
**A.** 1.42E−03 MBq-h/MBq

**Q.** And the “Time-integrated activity coefficient (residence time), Remainder” value (^90Y)?
**A.** 4.74 MBq-h/MBq

**Q.** What about the “Time-integrated activity coefficient (residence time), Renal cortex” value (^90Y) of the same compound?
**A.** 5.27E−01 MBq-h/MBq

**Q.** And the “Time-integrated activity coefficient (residence time), Salivary Glands” value (^90Y)?
**A.** 4.88E−02 MBq-h/MBq

**Q.** What about the “Time-integrated activity coefficient (residence time), Small intestine” value (^90Y) of the same compound?
**A.** 1.32E−02 MBq-h/MBq

**Q.** What about the “Time-integrated activity coefficient (residence time), Spleen” value (^90Y) of the same compound?
**A.** 1.15E−02 MBq-h/MBq

**Q.** And the “Time-integrated activity coefficient (residence time), Stomach” value (^90Y)?
**A.** 8.06E−03 MBq-h/MBq

**Q.** What about the “Time-integrated activity coefficient (residence time), ULI” value (^90Y) of the same compound?
**A.** 2.51E−02 MBq-h/MBq

**Q.** And the “Time-integrated activity coefficient (residence time), Ur. bladder contents” value (^90Y)?
**A.** 9.54E−01 MBq-h/MBq

**Q.** What about the “Organ absorbed dose, Adrenals” value (^177Lu) of the same compound?
**A.** 6.96E−03 mGy/MBq

**Q.** And the “Organ absorbed dose, Brain” value (^177Lu)?
**A.** 1.48E−03 mGy/MBq

**Q.** What about the “Organ absorbed dose, Breasts” value (^177Lu) of the same compound?
**A.** 6.08E−03 mGy/MBq

**Q.** What about the “Organ absorbed dose, Gallbladder wall” value (^177Lu) of the same compound?
**A.** 6.79E−03 mGy/MBq

**Q.** What about the “Organ absorbed dose, Heart wall” value (^177Lu) of the same compound?
**A.** 9.54E−03 mGy/MBq

**Q.** What about the “Organ absorbed dose, Kidneys” value (^177Lu) of the same compound?
**A.** 2.10E−01 mGy/MBq

**Q.** And the “Organ absorbed dose, LLI wall” value (^177Lu)?
**A.** 7.06E−03 mGy/MBq

**Q.** And the “Organ absorbed dose, Liver” value (^177Lu)?
**A.** 9.37E−03 mGy/MBq

**Q.** And the “Organ absorbed dose, Lungs” value (^177Lu)?
**A.** 1.16E−02 mGy/MBq

**Q.** And the “Organ absorbed dose, Muscle” value (^177Lu)?
**A.** 3.26E−03 mGy/MBq

**Q.** What about the “Organ absorbed dose, Osteogenic cells” value (^177Lu) of the same compound?
**A.** 1.94E−02 mGy/MBq

**Q.** And the “Organ absorbed dose, Ovaries” value (^177Lu)?
**A.** 7.05E−03 mGy/MBq

**Q.** And the “Organ absorbed dose, Pancreas” value (^177Lu)?
**A.** 9.34E−03 mGy/MBq

**Q.** And the “Organ absorbed dose, Prostate” value (^177Lu)?
**A.** 7.94E−03 mGy/MBq

**Q.** And the “Organ absorbed dose, Red marrow” value (^177Lu)?
**A.** 5.04E−03 mGy/MBq

**Q.** What about the “Organ absorbed dose, Renal cortex” value (^177Lu) of the same compound?
**A.** 0.245 mGy/MBq and 2.45E−01 mGy/MBq

**Q.** And the “Organ absorbed dose, Salivary glands” value (^177Lu)?
**A.** 4.76E−02 mGy/MBq

**Q.** And the “Organ absorbed dose, Skin” value (^177Lu)?
**A.** 6.01E−03 mGy/MBq

**Q.** What about the “Organ absorbed dose, Small intestine” value (^177Lu) of the same compound?
**A.** 8.30E−03 mGy/MBq

**Q.** What about the “Organ absorbed dose, Spleen” value (^177Lu) of the same compound?
**A.** 7.16E−03 mGy/MBq

**Q.** What about the “Organ absorbed dose, Stomach wall” value (^177Lu) of the same compound?
**A.** 7.88E−03 mGy/MBq

**Q.** What about the “Organ absorbed dose, Testes” value (^177Lu) of the same compound?
**A.** 6.56E−03 mGy/MBq

**Q.** What about the “Organ absorbed dose, Thymus” value (^177Lu) of the same compound?
**A.** 6.29E−03 mGy/MBq

**Q.** What about the “Organ absorbed dose, Thyroid” value (^177Lu) of the same compound?
**A.** 6.26E−03 mGy/MBq

**Q.** And the “Organ absorbed dose, ULI wall” value (^177Lu)?
**A.** 1.16E−02 mGy/MBq

**Q.** And the “Organ absorbed dose, Urinary bladder wall” value (^177Lu)?
**A.** 2.14E−01 mGy/MBq

**Q.** What about the “Organ absorbed dose, Uterus” value (^177Lu) of the same compound?
**A.** 7.76E−03 mGy/MBq

**Q.** And the “Time-integrated activity coefficient (residence time), Brain” value (^177Lu)?
**A.** 1.89E−02 MBq-h/MBq

**Q.** And the “Time-integrated activity coefficient (residence time), Heart contents” value (^177Lu)?
**A.** 3.30E−02 MBq-h/MBq

**Q.** What about the “Time-integrated activity coefficient (residence time), Kidneys” value (^177Lu) of the same compound?
**A.** 7.24E−01 MBq-h/MBq

**Q.** And the “Time-integrated activity coefficient (residence time), Liver” value (^177Lu)?
**A.** 1.88E−01 MBq-h/MBq

**Q.** What about the “Time-integrated activity coefficient (residence time), Lungs” value (^177Lu) of the same compound?
**A.** 1.28E−01 MBq-h/MBq

**Q.** What about the “Time-integrated activity coefficient (residence time), Muscle” value (^177Lu) of the same compound?
**A.** 8.15E−01 MBq-h/MBq

**Q.** What about the “Time-integrated activity coefficient (residence time), Pancreas” value (^177Lu) of the same compound?
**A.** 9.00E−03 MBq-h/MBq

**Q.** And the “Time-integrated activity coefficient (residence time), Prostate” value (^177Lu)?
**A.** 1.48E−03 MBq-h/MBq

**Q.** What about the “Time-integrated activity coefficient (residence time), Remainder” value (^177Lu) of the same compound?
**A.** 4.84 MBq-h/MBq

**Q.** And the “Time-integrated activity coefficient (residence time), Renal cortex” value (^177Lu)?
**A.** 6.02E−01 MBq-h/MBq

**Q.** And the “Time-integrated activity coefficient (residence time), Salivary Glands” value (^177Lu)?
**A.** 4.97E−02 MBq-h/MBq

**Q.** What about the “Time-integrated activity coefficient (residence time), Small intestine” value (^177Lu) of the same compound?
**A.** 1.43E−02 MBq-h/MBq

**Q.** And the “Time-integrated activity coefficient (residence time), Spleen” value (^177Lu)?
**A.** 1.29E−02 MBq-h/MBq

**Q.** And the “Time-integrated activity coefficient (residence time), Stomach” value (^177Lu)?
**A.** 8.46E−03 MBq-h/MBq

**Q.** And the “Time-integrated activity coefficient (residence time), ULI” value (^177Lu)?
**A.** 2.64E−02 MBq-h/MBq

**Q.** What about the “Time-integrated activity coefficient (residence time), Ur. bladder contents” value (^177Lu) of the same compound?
**A.** 1.00 MBq-h/MBq

**Q.** And the “highest mean absorbed dose, renal cortex” value (overview text b262)?
**A.** 1.9 mGy per MBq
